Paper PMC10216581, “Homogeneous, Synthetic, Non-Saccharide Glycosaminoglycan Mimetics as Potent Inhibitors of Human Cathepsin G” (Biomolecules, 2023)
Several values for one entry are separate records, joined by “and”; a condition that tells them apart may be missing. Equal entries are not always repeated. Entries after “also recorded” stand apart in the source; their conditions may differ. Where two headings read alike, the source gives them in different places.

Tests used:
human plasmin = test system: human plasmin; set-up: method as in PMID 9790687; conditions: previous studies; cited from earlier work
human plasma = assay: Activated partial thromboplastin time (aPTT) clotting assay; format: biochemical
Procedure: The impacts of NSGM 25 on activated partial thromboplastin time (aPTT) and the prothrombin time (PT) of human plasma were measured employing a standard one-stage recalcification assay at 37 °C, as previously reported. CaCl2 and thromboplastin-D were used to initiate clotting in aPTT and PT assays, respectively, in the absence and presence of NSGM 25, and the time to clot was recorded accordingly.

Human CatG = biological target: T1, Human CatG (Homo sapiens, UniProt P08311); assay: Direct inhibition of CatG, chromogenic substrate (S-7388) hydrolysis assay, IC50 determination; format: biochemical; conditions: 100 mM NaCl
T1 construct: purchased Elastin Products Company (Owensville, MO, USA)
T1 sequence (P08311 21-255): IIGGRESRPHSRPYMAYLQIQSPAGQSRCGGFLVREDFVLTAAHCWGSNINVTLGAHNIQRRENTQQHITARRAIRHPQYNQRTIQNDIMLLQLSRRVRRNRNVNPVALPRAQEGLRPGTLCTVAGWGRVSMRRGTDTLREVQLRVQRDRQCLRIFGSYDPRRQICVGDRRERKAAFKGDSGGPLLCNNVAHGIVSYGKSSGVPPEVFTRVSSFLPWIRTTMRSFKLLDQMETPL
Procedure: A chromogenic substrate hydrolysis assay was used to determine the direct inhibition of CatG by the NSGMs, as previously reported. To each well of a 96-well microplate containing 88 µL of 20 mM tris buffer, containing 100 mM NaCl, 2.5 mM CaCl2, 0.1% PEG 8000, and 0.05% Tween 80, 4 µL of CatG (final concentration of 60 nM) and 5 µL of H2O or NSGM (final concentration of 0–100 µM) were added. After incubating for a period of 5 min, 3 µL of CatG substrate (S-7388, final concentration of 750 µM) was added, and the residual CatG activity was obtained from the initial rate of increase of absorbance at 405 nm. The relative residual activity of CatG for each of the NSGMs, at the various concentrations, was calculated from the ratio of CatG activity in the presence and absence of NSGMs. The dose dependence curve was plotted using a logistic equation (see below) in Sigmaplot version 12 to obtain the IC50 (potency), Hill slope (HS), and efficacy (ΔY). Here, Y is the ratio of residual CatG activity in the presence of NSGMs to that in their absence, YO and YM are the minimum and maximum values of fractional residual CatG activity, respectively, IC50 is the concentration of the NSGM that inhibits CatG activity by 50%, and HS is the Hill slope. ΔY = YM − YO. Y=YO+YM−YO/1+10^logI0−logIC50HS
Figure 4 Representative IC50 profiles for CatG inhibition by NSGMs. Direct inhibition of human CatG was measured using the chromogenic substrate hydrolysis assay at pH 7.4 and 37 °C. Solid lines represent analysis using the logistic dose–response relationship (Equation (1)) to obtain the IC50, ΔY%, and HS. Errors represent ± 1 S.E.

In the case of `O=c1c(OS(=O)(=O)O)c(-c2ccc(OS(=O)(=O)O)c(OS(=O)(=O)O)c2)oc2cc(OS(=O)(=O)O)cc(OCc3ccc(COc4cc(OS(=O)(=O)O)cc5oc(-c6ccc(OS(=O)(=O)O)c(OS(=O)(=O)O)c6)c(OS(=O)(=O)O)c(=O)c45)cc3)c12` [NSGM 25], the IC50 (human plasmin) is given as about 6.3 µM, the “aPTT (EC2X)” value (human plasma; concentration required to double the aPTT of pooled human plasma) is given as over 1000 µM and the “effect on aPTT clotting time” value (human plasma; human plasma, concentration as high as 1 mM) is given as “did not impact; also recorded: did not extend”. The IC50 (Human CatG; pH 7.4, read-out: IC50 (potency)) was ~0.05 µM and 0.053 µM, the “HS (Hill slope)” value (Human CatG; Hill slope of dose-response fit, pH 7.4) was 0.7 ± 0.1 and the IC50 (Human CatG; pH 7.4 tris buffer, 37 °C, 60 nM CatG, 750 µM S-7388, ± 1 S.E., read-out: IC50) was 0.05 ± 0.01 µM. For the same compound, the “ΔY (efficacy)” value (Human CatG; ΔY = YM − YO of dose-response fit, pH 7.4) was 95 ± 7%.
